Data as given in patent publication US9089139B2, “Agri-horticultural pest control compositions comprising 4-(3-butynyl)aminopyrimidine derivatives” (SDS Biotech K. K., priority 2011, dated 2015).

Legend:
[1] = system: Sphaerotheca fuliginea; assay: Test 1: control effect against powdery mildew on cucumber (control index); type: in vivo, Sphaerotheca fuliginea on cucumber (variety: SAGAMI HANJIRO); conditions: Podosphaera fuliginea, 336 h; individual active compound, test concentration 0.5 ppm
Source text: (§1) The expected efficacies of the combinations of the individual active compounds can be determined using Colby's formula, which is described below [Colby, S. R. “Calculating synergistic and antagonistic responses of herbicide combinations,” Weeds 15, 20-22 (1967)]: Colby's formula: E=A+B−(A×B/100) E is the predicted efficacy (control index) with reference to the untreated control when using the mixture of the active compound X at the concentration x and the active compound Y at the concentration y; A is the efficacy (control index) with respect to the untreated control when using the active compound X at the concentration x; B is the efficacy (control index) with respect to the untreated control when using the active compound […] at the concentration y.
(§2) Potted young seedlings of cucumber (variety: SAGAMI HANJIRO; in two-leaf stage) were sprayed with invention compounds formulated in accordance with Preparations and the existing antimicrobial active compounds listed in Table 3 (all compounds are identified by associated letters of the alphabet) after they were diluted with water to predetermined concentrations so that they would serve as active compounds; a spray gun was used to provide a spray rate of 15 ml per pot. After air-drying, the seedlings were inoculated with conida of Sphaerotheca fuliginea by spraying a suspension of the conida. Thereafter, the seedlings were cultivated for 14 days in a greenhouse and the percentage of diseased area was investigated for each leaf; based on the result of this investigation, the control index was calculated using the following formula: Control index={(percentage of diseased area on the untreated control−percentage of diseased area on treated sample)/percentage of diseased area on the untreated control}×100

[2] = system: Pseudoperonospora cubensis; assay: Control effect against Pseudoperonospora cubensis on cucumber seedlings (control index as in Test 1); type: in vivo; conditions: Pseudoperonospora cubensis, 72 h; individual active compound, test concentration 0.05 ppm; read-out: Observed value Control index
Source text: as §1, §2
Potted young seedlings of cucumber (variety: SAGAMI HANJIRO; in two-and-a-half leaf stage) were sprayed with invention agri-horticulatural pest control compositions formulated in accordance with Preparations and the existing antimicrobial active compounds listed in Table 5 (all compounds are identified by associated letters of the alphabet) after they were diluted with water to predetermined concentrations so that they would serve as active compounds; a spray gun was used to provide a spray rate of 15 ml per pot. After air-drying, the seedlings were inoculated with conida of Pseudoperonospora cubensis by spraying a suspension of the conida. Immediately thereafter, the seedlings were held for a day under the conditions of 21° C. and 100% humidity. The seedlings were then placed at room temperature and 3 days later, the percentage of diseased area was investigated for each leaf; based on the result of this investigation, the control index was calculated as in Test 1.

[3] = system: Aphis gossypii; assay: Test 3: insecticidal effect on Aphis gossypii (mortality rate); type: in vivo; conditions: Aphis gossypii, 48 h; individual active compound, test concentration 0.1 ppm; read-out: Observed value Mortality rate
Source text: as §1
Invention compounds and the existing insecticidal active compounds shown in Table 7 (hereinbelow, the compound names are identified by associated letters of the alphabet) were diluted with water to predetermined concentrations so that they would serve as active ingredients. Cucumber leaves with a diameter of 3 cm were placed on plastic cups filled with 0.5% soft agar and five adult aphids were released to feed on the leaves. After standing overnight, the adult insects were removed and the number of nymph as an offspring was counted; each of the prepared liquid samples of insecticide was sprayed in 0.4 ml portions and two days later, the number of dead insects was countd to calculate the mortality rate. The expected efficacies of the combinations of the individual active compounds were calculated by Colby's formula.

SMILES | pest or weed control at 0.5 ppm [1] | pest or weed control at 0.05 ppm [2] | pest or weed control at 0.1 ppm [3]
COCc1cc(C)ccc1C#CCCNc1ncnc2ccccc12 [compound 145] | 45% | 37% | 35%
FCc1ccccc1C#CCCNc1ncnc2ccccc12 [compound 99] | 53% | 46% | 44%
COCc1cc(F)ccc1C#CCCNc1ncnc2ccccc12 [compound 139] | 51% | 43% | 41%
COCc1cc(Cl)ccc1C#CCCNc1ncnc2ccccc12 [compound 140] | 48% | 45% | 43%
FCC1=C(C#CCCNc2ncnc3ccccc23)CCCC1 [compound 391] | 48% | 41% | 43%
OCC1=C(C#CCCNc2ncnc3ccccc23)CCCC1 [compound 390] | 51% | 38% | 41%
FC(F)(F)c1ccccc1C#CCCNc1ncnc2ccccc12 [compound 101] | 56% | 38% | 36%
COCc1ccccc1C#CCCNc1ncnc2ccccc12 [compound 133] | 49% | 41% | 39%
